Results as given in US11622965B2, “Methods for treating lymphoid malignancies” (ZHEJIANG DTRM BIOPHARMA CO. LTD., priority 2017, dated 2023).
pIC50: −log10 of the molar value. Entries after “also recorded” stand apart in the source; their conditions may differ.

How the values were obtained:
[1] = system: relapsed/refractory CLL, Hodgkin lymphoma and B-cell NHL including DLBCL; test: U.S. Phase Ia trial of Compound A monotherapy: efficacy; assay type: in vivo, human; design: key to response: PD: disease progression; conditions: for time on continued monotherapy treatment: treatment continuing
Experimental: Eligibility criteria for the U.S. study were similar to the China study, but histological subtypes included patients with relapsed/refractory CLL, Hodgkin lymphoma and B-cell NHL including DLBCL. Patients who had prior exposure to BTK inhibiting agents were permitted in the trial.
(§5) Studies on the 200 mg and 300 mg cohorts were conducted in a standard 3+3 design.
(§6) The response rate, including the partial response and complete response rate, was defined according to the Revised International Working Group Criteria for non-Hodgkin's lymphoma (Cheson et al., J Clin Oncol 25:579-86 (2007)). Drug-related adverse events (AEs), including DLT, non-hematologic AEs and hematologic AEs were recorded. […] The PK indexes of single dose administration included AUClast, AUCO-∞, Cmax, tmax, t1/2, CL/F and Vd/F. The PK indexes of steady state under continuous administration included AUCss, Cmax,ss and tmax,ss.

FGFR2 = FGFR2 (Homo sapiens, UniProt P21802); test: 46 kinase panel; assay type: biochemical
Text: (§1) Both patents are incorporated by reference herein in their entirety.

EGFR kinase = EGFR kinase (Homo sapiens, UniProt P00533); test: 46 kinase panel; assay type: biochemical
Text: as §1

JAK3 = molecular target: T1, JAK3 (Homo sapiens, UniProt P52333); test: 46 kinase panel; assay type: biochemical
T1 sequence (P52333 1-1124): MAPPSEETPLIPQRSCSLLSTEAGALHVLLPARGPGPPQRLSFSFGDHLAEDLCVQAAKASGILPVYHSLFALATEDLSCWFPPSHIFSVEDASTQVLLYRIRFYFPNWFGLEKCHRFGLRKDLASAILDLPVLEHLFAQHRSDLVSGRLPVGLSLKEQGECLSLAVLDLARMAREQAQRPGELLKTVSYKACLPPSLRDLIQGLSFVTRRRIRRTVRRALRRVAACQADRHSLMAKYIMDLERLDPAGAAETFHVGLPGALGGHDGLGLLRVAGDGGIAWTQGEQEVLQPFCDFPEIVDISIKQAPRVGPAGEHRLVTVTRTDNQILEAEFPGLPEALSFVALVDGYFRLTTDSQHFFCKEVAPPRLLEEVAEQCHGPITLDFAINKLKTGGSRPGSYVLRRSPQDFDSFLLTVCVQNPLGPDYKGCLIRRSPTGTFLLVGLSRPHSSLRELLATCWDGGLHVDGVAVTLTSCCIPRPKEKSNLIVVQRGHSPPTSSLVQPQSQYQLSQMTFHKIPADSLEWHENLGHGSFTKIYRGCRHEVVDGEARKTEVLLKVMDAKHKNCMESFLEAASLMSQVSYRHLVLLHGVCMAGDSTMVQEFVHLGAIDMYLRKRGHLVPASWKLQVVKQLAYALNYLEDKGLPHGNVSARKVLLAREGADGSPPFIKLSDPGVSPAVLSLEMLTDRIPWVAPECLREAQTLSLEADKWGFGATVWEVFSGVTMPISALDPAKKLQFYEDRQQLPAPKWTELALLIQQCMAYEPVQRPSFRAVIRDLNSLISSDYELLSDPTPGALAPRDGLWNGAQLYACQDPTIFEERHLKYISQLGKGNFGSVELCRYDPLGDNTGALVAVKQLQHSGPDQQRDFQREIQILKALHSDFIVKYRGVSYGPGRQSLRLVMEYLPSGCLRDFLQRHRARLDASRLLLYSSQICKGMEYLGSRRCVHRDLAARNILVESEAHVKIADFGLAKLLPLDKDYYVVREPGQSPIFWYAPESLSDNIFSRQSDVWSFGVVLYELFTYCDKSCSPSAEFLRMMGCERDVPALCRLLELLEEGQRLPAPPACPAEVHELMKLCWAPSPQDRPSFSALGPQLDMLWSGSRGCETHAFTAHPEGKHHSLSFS
Text: as §1

FGFR1 = FGFR1 (Homo sapiens, UniProt P11362); test: 46 kinase panel; assay type: biochemical
Text: as §1

toxicokinetics in rats = assay type: in vivo
Text: as §1

[2] = toxicokinetics in beagle dogs; assay type: in vivo
Text: as §1

[3] = system: relapsed/refractory CLL and B-cell lymphomas; test: China and U.S. first-in-human monotherapy trials, overall conclusions
Text: The primary endpoint of the trials was safety, while the secondary endpoints of the trials were anti-tumor activity and pharmacokinetic parameters. Patients enrolled in the trials met the following criteria: relapsed/refractory CLL and B-cell lymphoma with no available effective therapies, ≥18 years of age, and an Eastern Cooperative Oncology Group (ECOG) score≤1. […] The 3+3 dose-escalation method was used.
Relapsed/refractory B-cell lymphoma patients who met the aforementioned enrollment criteria were enrolled without randomization. […] The patients were required to stay in the hospital for 24 hours after the first dosing. […] The first 28 days of treatment was considered DLT period.
as §5, §6

[4] = China Phase I trial of Compound A monotherapy: safety; assay type: in vivo, human
Experimental: (§2) The pharmacokinetics of Compound A was also evaluated.
(§3) Patients who met the following inclusion criteria were enrolled in the trials in China: i) age≥18 years, no gender limits, and provide the informed consent form; ii) B-cell lymphoma classification is based on WHO classified definition, including CLL, small lymphocytic lymphoma (SLL); CLL with 17p-; MCL; WM; DLBCL, etc.; iii) measurable lesion: NHL requires at least one≥2 cm two-dimensional lesion diameter, CLL≥5000 leukemia cells/mm^3, WM IgM≥1000 mg/dL, bone marrow lymph plasma-like cells infiltration, histopathologically diagnosed as DLBCL; iv) patients failed in lymphoma treatment at least once and have no standard therapeutic options; DLBCL patients who are not suitable for or reject autologous stem cell transplantation; and v) ECOG (Eastern Cooperative Oncology Group) performance status 0˜1. Meanwhile, patients who met any one of the following criteria were excluded: i) disease with changes of pathological tissue types (including large cell transformation); ii) patients received other BTK inhibitor therapy (China only); and iii) patients with HIV infection, or HBs-Ag or HBc-Ab positive.
(§4) No intrapatient dose escalation of Compound A was permitted.

[5] = system: relapsed/refractory B-cell lymphomas; test: China Phase I trial of Compound A monotherapy: efficacy; assay type: in vivo, human
Experimental: as §2, §3, §4

[6] = system: 104 proteins (e.g., transporters, cell receptors, ion channels, and enzymes); test: off-target screenings against 104 proteins
Text: as §1

[7] = U.S. Phase Ia trial of Compound A monotherapy: pharmacokinetics; assay type: in vivo; conditions: human, plasma, oral, Compound A Plasma Level
Experimental: as §5
Drug-related adverse events (AEs), including DLT, non-hematologic AEs and hematologic AEs were recorded. […] The PK indexes of single dose administration included AUClast, AUCO-∞, Cmax, tmax, t1/2, CL/F and Vd/F. The PK indexes of steady state under continuous administration included AUCss, Cmax,ss and tmax,ss.

[8] = 13 patients, 50-400 mg daily, 28 day dosing schedule

Chain of EGFR kinase (P00533 25-1210): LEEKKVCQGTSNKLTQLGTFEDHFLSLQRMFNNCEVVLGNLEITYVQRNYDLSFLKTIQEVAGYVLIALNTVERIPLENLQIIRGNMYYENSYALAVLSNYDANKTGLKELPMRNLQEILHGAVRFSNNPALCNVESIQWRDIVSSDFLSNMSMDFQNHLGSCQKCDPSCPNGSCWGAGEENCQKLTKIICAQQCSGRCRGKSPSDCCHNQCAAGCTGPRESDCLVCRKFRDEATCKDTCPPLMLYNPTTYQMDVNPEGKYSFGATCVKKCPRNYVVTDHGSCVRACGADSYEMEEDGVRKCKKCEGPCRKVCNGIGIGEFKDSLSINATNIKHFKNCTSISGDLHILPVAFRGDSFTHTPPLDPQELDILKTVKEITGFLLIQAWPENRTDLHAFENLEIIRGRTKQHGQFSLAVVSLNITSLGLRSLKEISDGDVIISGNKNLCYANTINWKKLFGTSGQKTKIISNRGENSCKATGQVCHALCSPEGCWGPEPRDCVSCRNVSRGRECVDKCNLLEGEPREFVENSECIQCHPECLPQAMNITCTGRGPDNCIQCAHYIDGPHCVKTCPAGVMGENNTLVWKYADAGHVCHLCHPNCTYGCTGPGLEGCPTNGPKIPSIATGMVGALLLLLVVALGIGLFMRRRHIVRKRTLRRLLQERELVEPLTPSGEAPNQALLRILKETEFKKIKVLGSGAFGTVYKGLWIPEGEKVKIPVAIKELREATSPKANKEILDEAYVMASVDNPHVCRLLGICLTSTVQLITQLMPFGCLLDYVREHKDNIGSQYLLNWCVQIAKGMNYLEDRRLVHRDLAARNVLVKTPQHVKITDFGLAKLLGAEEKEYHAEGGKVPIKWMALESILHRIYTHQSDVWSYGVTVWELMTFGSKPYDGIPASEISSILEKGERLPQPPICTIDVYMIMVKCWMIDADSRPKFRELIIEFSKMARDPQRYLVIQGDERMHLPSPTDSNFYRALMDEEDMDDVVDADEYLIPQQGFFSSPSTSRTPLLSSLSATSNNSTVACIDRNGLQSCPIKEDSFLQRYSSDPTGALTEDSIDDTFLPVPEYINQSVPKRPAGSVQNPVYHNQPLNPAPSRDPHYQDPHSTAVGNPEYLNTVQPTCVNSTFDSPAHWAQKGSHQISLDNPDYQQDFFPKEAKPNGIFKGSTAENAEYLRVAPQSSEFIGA
Chain of FGFR1 (P11362 22-822, species assumed): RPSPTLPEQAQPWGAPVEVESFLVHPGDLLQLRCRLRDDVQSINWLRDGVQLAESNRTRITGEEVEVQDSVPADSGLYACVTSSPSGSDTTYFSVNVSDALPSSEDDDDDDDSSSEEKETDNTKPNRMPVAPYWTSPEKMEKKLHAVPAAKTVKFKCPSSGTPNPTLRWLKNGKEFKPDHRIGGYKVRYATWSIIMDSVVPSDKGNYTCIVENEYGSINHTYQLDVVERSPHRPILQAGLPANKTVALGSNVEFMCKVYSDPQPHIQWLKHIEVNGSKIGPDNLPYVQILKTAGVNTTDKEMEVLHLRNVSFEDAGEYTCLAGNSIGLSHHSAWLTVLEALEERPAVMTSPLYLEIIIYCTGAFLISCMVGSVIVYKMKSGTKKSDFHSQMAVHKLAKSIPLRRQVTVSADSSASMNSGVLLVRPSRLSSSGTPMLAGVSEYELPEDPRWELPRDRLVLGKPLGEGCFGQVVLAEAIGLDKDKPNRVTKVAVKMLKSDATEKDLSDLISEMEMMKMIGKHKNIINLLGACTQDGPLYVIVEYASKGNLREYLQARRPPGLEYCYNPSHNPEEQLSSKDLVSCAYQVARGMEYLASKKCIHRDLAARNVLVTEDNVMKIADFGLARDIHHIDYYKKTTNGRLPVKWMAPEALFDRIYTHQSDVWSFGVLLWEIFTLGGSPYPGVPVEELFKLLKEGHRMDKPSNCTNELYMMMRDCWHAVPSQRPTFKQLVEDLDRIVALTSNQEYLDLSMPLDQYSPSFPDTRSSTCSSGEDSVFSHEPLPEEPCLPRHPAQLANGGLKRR
Chain of FGFR2 (P21802 22-821, species assumed): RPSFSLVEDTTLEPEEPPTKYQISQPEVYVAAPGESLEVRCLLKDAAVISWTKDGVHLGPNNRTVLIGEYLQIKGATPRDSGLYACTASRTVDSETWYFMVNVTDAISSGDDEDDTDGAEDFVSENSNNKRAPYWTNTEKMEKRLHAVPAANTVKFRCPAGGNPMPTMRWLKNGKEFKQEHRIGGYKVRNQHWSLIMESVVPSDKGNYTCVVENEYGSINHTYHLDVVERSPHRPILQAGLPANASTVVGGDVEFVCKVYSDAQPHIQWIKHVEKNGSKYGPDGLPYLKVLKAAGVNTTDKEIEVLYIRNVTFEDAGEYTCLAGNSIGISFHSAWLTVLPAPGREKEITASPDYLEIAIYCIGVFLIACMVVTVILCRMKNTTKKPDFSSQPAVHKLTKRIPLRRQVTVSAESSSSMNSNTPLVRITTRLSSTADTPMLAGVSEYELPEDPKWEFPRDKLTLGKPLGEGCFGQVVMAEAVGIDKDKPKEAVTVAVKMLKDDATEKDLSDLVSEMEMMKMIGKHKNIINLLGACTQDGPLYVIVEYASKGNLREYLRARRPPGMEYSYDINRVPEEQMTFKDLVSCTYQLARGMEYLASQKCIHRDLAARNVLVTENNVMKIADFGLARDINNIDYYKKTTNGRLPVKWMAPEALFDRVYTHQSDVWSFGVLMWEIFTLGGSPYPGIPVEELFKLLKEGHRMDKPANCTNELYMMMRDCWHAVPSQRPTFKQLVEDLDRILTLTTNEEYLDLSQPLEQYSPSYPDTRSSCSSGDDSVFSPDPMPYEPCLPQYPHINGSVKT

Question: Which response ([1]; B-cell lymphoma patient) does the source give for `C=CC(=O)N1CC[C@@H](n2nc(-c3ccc(Oc4c(F)c(F)cc(F)c4F)cc3F)c3c(N)ncnc32)C1` [Compound A, 1-((R)-3-(4-amino-3-(2-fluoro-4-(2,3,5,6-tetrafluorophenoxy)phenyl)-1H-pyrazolo[3,4-d]pyrimidin-1-yl)pyrrolidin-1-yl)prop-2-en-1-one] here?
Answer: Its response is 1SD.

Question: And the “time on monotherapy until off study for disease progression” value (shortened to “time on monotherapy until off study”) ([1]; B-cell lymphoma, 50 mg)?
Answer: Its value is “five months”.

Question: What about the response ([1]; CLL patients (N=2)) of the same molecule?
Answer: Its response is 1PR, 1SD.

Question: What about the “time on continued monotherapy treatment” value ([1]; CLL, 100 mg) of the same molecule?
Answer: Its value is 13 months.

Question: What about the “time on monotherapy until off study” value ([1]; CLL, 200 mg) of the same molecule?
Answer: Its value is 8 months.

Question: And the response ([1]; DLBCL patient)?
Answer: The response was “PD”.

Question: What about the “time on monotherapy until off study” value ([1]; DLBCL, 200 mg) of the same molecule?
Answer: Its value is 2 months.

Question: And the response ([1]; MZL patient)?
Answer: The response was 1PR.

Question: What about the “time on continued monotherapy treatment” value ([1]; MZL) of the same molecule?
Answer: The value was 11 months.

Question: What about the “inhibition of FGFR2” value (FGFR2) of the same molecule?
Answer: The value was “partial inhibition”.

Question: And the “inhibition of EGFR” value (EGFR kinase; 46 kinase panel)?
Answer: Its value is “partial inhibition”.

Question: What about the pIC50 (EGFR kinase; read-out: IC50 against EGFR kinase) of the same molecule?
Answer: The pIC50 was 6.96.

Question: And the “inhibition of JAK3” value (JAK3)?
Answer: Its value is “partial inhibition”.

Question: And the “inhibition of FGFR1” value (FGFR1)?
Answer: Its value is “partial inhibition”.

Question: What about the toxicokinetics properties (toxicokinetics in rats) of the same molecule?
Answer: The toxicokinetics properties was “Improved toxicokinetics properties”.

Question: What about the toxicokinetics properties [2] of the same molecule?
Answer: The toxicokinetics properties was “Improved toxicokinetics properties”.

Question: What about the “cycles of monotherapy tolerated” value ([3]; China and U.S. trials) of the same molecule?
Answer: The value was “up to 23 cycles”.

Question: What about the maximum tolerated dose ([3]; Compound A monotherapy, China and U.S. trials) of the same molecule?
Answer: Its maximum tolerated dose is “had not been reached”.

Question: And the “exposures to Compound A” value ([3]; all patients at all of the dose levels)?
Answer: Its value is “adequate exposures”.

Question: And the “efficacy in WM, MZL, and SLL/CLL patients” value ([3]; orally 50-400 mg once daily)?
Answer: Its value is “preliminary efficacy was observed; also recorded: Efficacy of the Compound has also been observed”.

Question: And the safety and tolerability ([3]; patients with relapsed/refractory CLL and B-cell lymphomas, China and U.S. trials)?
Answer: Its safety and tolerability is “safe and well tolerated”.

Question: And the “Grade 2, 4 or 5 hematologic events” value [4]?
Answer: Its value is “No Grade 2, 4 or 5 hematologic events occurred”.

Question: What about the “Grade 2, 4 or 5 non-hematologic events” value [4] of the same molecule?
Answer: The value was “No Grade 2, 4 or 5 non-hematologic events occurred”.

Question: What about the “anemia, patients” value [4, 8] of the same molecule?
Answer: Its value is 23.1%.

Question: And the “leucopenia, patients” value [4, 8]?
Answer: Its value is 23.1%.

Question: What about the “neutropenia, patients” value [4, 8] of the same molecule?
Answer: The value was 23.1%.

Question: And the dose-limiting toxicity ([4]; 50-400 mg daily)?
Answer: The dose-limiting toxicity was “No dose-limiting toxicity occurred”.

Question: What about the “grade of the majority of drug-related AEs” value ([4]; 28 day dosing schedule) of the same molecule?
Answer: The value was “grade 1”.

Question: What about the “Grade 1 alanine aminotransferase (ALT) elevation, patients” value ([4]; one patient) of the same molecule?
Answer: The value was 7.7%.

Question: What about the “Grade 1 neutropenia, patients” value ([4]; one patient) of the same molecule?
Answer: The value was 7.7%.

Question: What about the “Grade 3 pneumonia, patients” value ([4]; one patient) of the same molecule?
Answer: The value was 7.7%.

Question: What about the “Grade 3 neutropenia, patients” value ([4]; two patients) of the same molecule?
Answer: Its value is 15.4%.

Question: What about the response ([5]; FL patients (N=2)) of the same molecule?
Answer: Its response is 1PR, 1SD.

Question: What about the “progressive disease after treatment” value ([5]; FL patients, first cycle) of the same molecule?
Answer: Its value is “three FL patients experienced progressive disease”.

Question: What about the response ([5]; MZL patients (N=2)) of the same molecule?
Answer: Its response is 1CR, 1SD.

Question: And the response ([5]; WM patients (N=2))?
Answer: Its response is 2PR.

Question: What about the off-target inhibitory activities [6] of the same molecule?
Answer: The off-target inhibitory activities was “no off-target inhibitory activities”.

Question: And the concentration at 0 h ([7]; 50 mg, Day 1, 50 mg)?
Answer: The concentration at 0 h was 0 ng/mL.

Question: And the concentration at 0.5 h ([7]; 50 mg, Day 1, 50 mg)?
Answer: The concentration at 0.5 h was 2.84 ng/mL.

Question: And the concentration at 1 h ([7]; 50 mg, Day 1, 50 mg)?
Answer: Its concentration at 1 h is 26.9 ng/mL.

Question: What about the concentration at 2 h ([7]; 50 mg, Day 1, 50 mg) of the same molecule?
Answer: Its concentration at 2 h is 63.4 ng/mL.

Question: And the concentration at 4 h ([7]; 50 mg, Day 1, 50 mg)?
Answer: The concentration at 4 h was 15.3 ng/mL.

Question: What about the concentration at 6 h ([7]; 50 mg, Day 1, 50 mg) of the same molecule?
Answer: The concentration at 6 h was 6.44 ng/mL.

Question: What about the concentration at 24 h ([7]; 50 mg, Day 1, 50 mg) of the same molecule?
Answer: Its concentration at 24 h is 0 ng/mL.

Question: And the concentration at 0 h ([7]; 100 mg, Day 1, 100 mg)?
Answer: Its concentration at 0 h is 9.04 ng/mL.

Question: What about the concentration at 0.5 h ([7]; 100 mg, Day 1, 100 mg) of the same molecule?
Answer: Its concentration at 0.5 h is 44.9 ng/mL.

Question: What about the concentration at 1 h ([7]; 100 mg, Day 1, 100 mg) of the same molecule?
Answer: Its concentration at 1 h is 53.3 ng/mL.

Question: What about the concentration at 2 h ([7]; 100 mg, Day 1, 100 mg) of the same molecule?
Answer: Its concentration at 2 h is 21.3 ng/mL.

Question: And the concentration at 4 h ([7]; 100 mg, Day 1, 100 mg)?
Answer: The concentration at 4 h was 13.3 ng/mL.

Question: And the concentration at 6 h ([7]; 100 mg, Day 1, 100 mg)?
Answer: Its concentration at 6 h is 13.3 ng/mL.

Question: And the concentration at 24 h ([7]; 100 mg, Day 1, 100 mg)?
Answer: The concentration at 24 h was 3.06 ng/mL.

Question: And the concentration at 0 h ([7]; 200 mg, Day 1, 200 mg)?
Answer: The concentration at 0 h was 0 ng/mL.

Question: And the concentration at 0.5 h ([7]; 200 mg, Day 1, 200 mg)?
Answer: The concentration at 0.5 h was 0 ng/mL.
